Assay [1] concerns Aβ42 release in H4-15× cells. The assay is described as follows: Inhibition of Aβ42 release in the supernatant of H4-15× cells. Type of assay: cell-based, human. As to conditions: for inhibition at 100 µM: Homo sapiens, H415, overnight (14-16 hours) incubation; for % inhibition of Aβ42 release: 100 μM, overnight (14-16 hours) incubation. How it is done: H4-15× cells (human neuroglioma cells transfected with the human gene encoding for the precursor of β-amyloid protein APP695) were cultured in flasks (in incubator at 37° C., under aqueous vapour saturated atmosphere with 5% carbon dioxide), in the presence of hygromycin and blasticidin, which maintain the selective pressure for the cells continuously expressing the gene of interest.
When the cells reached about 90% confluency, they were collected and re-seeded in 24 wells plates (2×10^5 cells each), in 0.5 ml of complete culture medium. After approx. 24 hours, when the cells had adhered to the well surface and reached confluency, the medium of each well was replaced with 0.5 ml of fresh culture medium, supplemented with a compound (I) to 100 micromolar final concentration. Each tested concentration was repeated in triplicate. The molecules used for the treatment were previously dissolved in dimethylsulfoxide (DMSO) or in a dimethylsulfoxide/water mixture, the final concentration of DMSO in the wells not exceeding 1%. Thus the prepared plates were incubated again overnight (14-16 hours); afterwards the cell supernatant was taken from each well and Aβ42 and Aβ40 proteins were quantitated. The assay was carried out with an instrumentation for microplates chemoluminescence analysis, which allows to separately quantify the two proteins and is based on the immobilization of an analyte-antibody complex on paramagnetic microbeads. One of the antibodies of this complex is marked with a ruthenium compound which, upon electrochemical excitement, gives a light signal, having intensity proportional to the amount of analyte present.

A further assay deals with T1, cyclooxygenase-1 (COX-1) (Rattus norvegicus, UniProt Q63921).
T1 construct: Aliquots of heparinized blood (500 μl) were preincubated with 100 μM concentration of the tested compounds; from tissue; host or cells: rat whole blood (heparinized, from the abdominal aorta)
T1 sequence (Q63921 27-602): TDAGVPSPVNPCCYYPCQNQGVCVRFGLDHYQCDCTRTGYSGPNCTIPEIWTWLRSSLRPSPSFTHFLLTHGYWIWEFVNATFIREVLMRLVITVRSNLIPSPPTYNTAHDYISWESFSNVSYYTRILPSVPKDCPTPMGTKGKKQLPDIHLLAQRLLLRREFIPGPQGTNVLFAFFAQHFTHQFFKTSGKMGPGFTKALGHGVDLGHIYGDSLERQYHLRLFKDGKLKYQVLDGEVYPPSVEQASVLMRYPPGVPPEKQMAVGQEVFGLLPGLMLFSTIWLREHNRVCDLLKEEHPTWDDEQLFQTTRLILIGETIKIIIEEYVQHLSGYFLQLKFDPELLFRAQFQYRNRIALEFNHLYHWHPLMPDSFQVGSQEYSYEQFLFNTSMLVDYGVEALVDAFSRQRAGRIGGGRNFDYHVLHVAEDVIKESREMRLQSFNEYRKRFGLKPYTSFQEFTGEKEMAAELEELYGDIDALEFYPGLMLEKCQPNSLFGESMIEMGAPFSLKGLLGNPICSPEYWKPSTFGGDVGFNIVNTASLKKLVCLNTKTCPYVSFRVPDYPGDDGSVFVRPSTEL
Briefly: Inhibition of cyclooxygenase-1 (COX-1) in rat whole blood (TxB2 production). Format: cell-based. As to conditions: for inhibition at 100 µM: read-out: % COX-1 inhibitory activity. The protocol: Whole blood was taken from the rat abdominal aorta and immediately placed in heparinized tubes. Aliquots of heparinized blood (500 μl) were preincubated with 100 μM concentration of the tested compounds or with the only carrier (DMSO) for 1 h at 37° C. Eicosanoid production was induced by addition of calcium ionophore A23187 (final concentration 5×10^−5 M) and was interrupted after 30 minute incubation by quickly placing the samples in dry ice. Thereafter, samples were centrifuged (12000 g×3 minutes a 4° C.) and the production of TxB2 thromboxane B2 was calculated by radioimmunoassay.

Setting [2] is: 100 μM, rat whole blood, calcium ionophore A23187-induced TxB2 production.

The structures appear in SMILES notation. Read-outs that look alike come from different tables or passages of the source.

On to `CC(C)(C(=O)O)c1ccc(-c2ccc(C(F)(F)F)cc2)c(F)c1` [CHF 4810, 2-methyl-2(2-fluoro-4′-trifluoromethylbiphen-4-yl)propionic acid], for which the inhibition at 100 µM in assay [1] was found to be 58%.
As for `CC(C)(C(=O)O)c1ccc(-c2ccc(C3CCCCC3)cc2)c(F)c1` [CHF 4961, 2-methyl-2(2-fluoro-4′cyclohexylbiphen-4-yl)propionic acid], the figures for the inhibition at 100 µM (at cyclooxygenase-1 (COX-1) (setting [2]); in assay [1]) were 5.2% and 76.6%, respectively.
In the case of `O=C(O)C1(c2ccc(-c3ccc(C(F)(F)F)cc3)c(F)c2)CC1` [CHF 5022, 1-(2-fluoro-4′-trifluoromethylbiphenyl-4-yl)cyclopropanecarboxylic acid], the figures for the inhibition at 100 µM (at cyclooxygenase-1 (COX-1) (setting [2]); in assay [1]) were 0% and 55.4%, respectively.
With `O=C(O)C1(c2ccc(-c3cccc(OC(F)(F)F)c3)c(F)c2)CC1` [CHF 5045, 1-(2-fluoro-3′-trifluoromethoxybiphenyl-4-yl)cyclopropanecarboxylic acid], the inhibition at 100 µM on cyclooxygenase-1 (COX-1) (setting [2]) stood at 8.3%; in assay [1], 56.4%.
Taken in the same sequence, the figures for `O=C(O)C1(c2ccc(-c3ccc(OC(F)(F)F)cc3)c(F)c2)CC1` [CHF 5046, 1-(2-fluoro-4′-trifluoromethoxybiphenyl-4-yl)cyclopropanecarboxylic acid] were 2.6% and 70.4%.
As to `O=C(O)C1(c2ccc(-c3cccc(C(F)(F)F)c3)c(F)c2)CC1` [CHF 5058, 1-(2-fluoro-3′-trifluoromethylbiphenyl-4-yl)cyclopropanecarboxylic acid], the values for the inhibition at 100 µM (at cyclooxygenase-1 (COX-1) (setting [2]); in assay [1]) were 0% and 54.8%, respectively.
For the compound `O=C(O)C1(c2ccc(-c3ccc(O)cc3)c(F)c2)CC1` [CHF 5070, 1-(2-fluoro-4′-hydroxybiphenyl-4-yl)cyclopropanecarboxylic acid], the inhibition at 100 µM at cyclooxygenase-1 (COX-1) (setting [2]) worked out at 0%; in assay [1], 22.4%.
Taken in the same sequence, the figures for `O=C(O)C1(c2ccc(-c3ccc(OC4CCOCC4)cc3)c(F)c2)CC1` [CHF 5071, 1-[2-fluoro-4′-(tetrahydropyran-4-yloxy)biphenyl-4-yl]-cyclopropane-carboxylic acid] were 0.4% and 28.1%.
For the compound `O=C(O)C1(c2ccc(-c3ccc(F)c(F)c3)c(F)c2)CC1` [CHF 5073, 1-(2,3′,4′-trifluorobiphenyl-4-yl)cyclopropanecarboxylic acid], the inhibition at 100 µM was 4.8% on cyclooxygenase-1 (COX-1) (setting [2]) and 67.4% in assay [1].
For the compound `O=C(O)C1(c2ccc(-c3ccc(Cl)c(Cl)c3)c(F)c2)CC1` [CHF 5074, 1-(3′,4′-dichloro-2-fluorobiphenyl-4-yl)cyclopropanecarboxylic acid], the inhibition at 100 µM at cyclooxygenase-1 (COX-1) (setting [2]) came out at 0.5%; in assay [1], 79.2%.
The matching figures for `O=C(O)C1(c2ccc(-c3ccc(F)c(Cl)c3)c(F)c2)CC1` [CHF 5076, 1-(3′-chloro-2,4′-difluorobiphenyl-4-yl)cyclopropanecarboxylic acid]: 5.5% and 71.4%.
In the case of `C#CCOc1ccc(-c2ccc(C3(C(=O)O)CC3)cc2F)cc1` [CHF 5078, 1-(2-fluoro-4′-prop-2-inyloxy-biphenyl-4-yl)-cyclopropanecarboxylic acid], on cyclooxygenase-1 (COX-1) (setting [2]), the “% COX-1 inhibitory activity” value is 3.6%. In addition, in assay [1], the “% inhibition of Aβ42 release” value stood at 57.5%.
Take `O=C(O)C1(c2ccc(-c3ccc(C4CCOCC4)cc3)c(F)c2)CC1` [CHF 5080, 1-[2-fluoro-4′-(tetrahydropyran-4-yl)-biphenyl-4-yl]-cyclopropanecarboxylic acid]: the inhibition at 100 µM on cyclooxygenase-1 (COX-1) (setting [2]) was 0.3%; in assay [1], 51.8%.
With `O=C1CCC(c2ccc(-c3ccc(C4(C(=O)O)CC4)cc3F)cc2)CC1` [CHF 5081, 1-[2-fluoro-4′-(4-oxo-cyclohexyl)-biphenyl-4-yl]-cyclopropanecarboxylic acid], the inhibition at 100 µM on cyclooxygenase-1 (COX-1) (setting [2]) was 6.1%; in assay [1] it was 52.3%.
With `O=C(O)C1CC1c1ccc(-c2ccc(-c3ccc(O)cc3)cc2)c(F)c1` (centres unmarked) [CHF 5083, 2-(2″-fluoro-4-hydroxy-[1,1′:4′,1″]tert-phenyl-4″-yl)-cyclopropanecarboxylic acid], in assay [1], the “% inhibition of Aβ42 release” value is 81.1%.
`O=C(O)C1(c2ccc(-c3ccc(OC4CCC(C(F)(F)F)CC4)cc3)c(F)c2)CC1` (centres unmarked) [CHF 5096, 1-[2-fluoro-4′-[[4-(trifluoromethyl)cyclohexyl]oxy][1,1′-biphenyl]-4-yl]-cyclopropanecarboxylic acid]: the inhibition at 100 µM at cyclooxygenase-1 (COX-1) (setting [2]) amounted to 0.8%; in assay [1], 70%.
As for `O=C(O)C1(c2ccc(-c3ccc(-c4ccc(F)cc4)cc3F)c(F)c2)CC1` [CHF 5105, 1-(2,2′,4″-trifluoro[1,1′:4′,1″-tert-phenyl]-4-yl)-cyclopropanecarboxylic acid], the “% COX-1 inhibitory activity” value at cyclooxygenase-1 (COX-1) (setting [2]) is recorded as 1.9%. In addition, the “% inhibition of Aβ42 release” value in assay [1] stood at 90.7%.
Taken in the same sequence, the figures for `O=C(O)C1(c2ccc(-c3ccc(-c4ccc(O)cc4)c(F)c3)c(F)c2)CC1` [CHF 5106, 1-(2,3′-difluoro-4″-hydroxy[1,1′:4′,1″-tert-phenyl]-4-yl)-cyclopropane-carboxylic acid] were 0.0% and 79.9%.
In the case of `O=C(O)C1(c2ccc(-c3ccc(-c4ccc(O)cc4)cc3F)c(F)c2)CC1` [CHF 5107, 1-(2,2′-difluoro-4″-hydroxy[1,1′:4′,1″-tert-phenyl]-4-yl)-cyclopropane-carboxylic acid], on cyclooxygenase-1 (COX-1) (setting [2]), the “% COX-1 inhibitory activity” value is given as 1.1%. The “% inhibition of Aβ42 release” value in assay [1] was found to be 83.3%.
As for `CC(C(=O)O)c1ccc(-c2ccccc2)c(F)c1` (centres unmarked) [Flurbiprofen, reference compound], the inhibition at 100 µM at cyclooxygenase-1 (COX-1) is 100%; in assay [1], ~25%.

(Values after patent US8314268B2, “1-phenylalkanecarboxylic acid derivatives for the treatment of neurodegenerative diseases” (Chiesi Farmaceutici S.p.A., priority 2003, dated 2012).)
